Measurements published in patent publication US20240417398A1, “TETRAHYDRONAPTHYRIDINE AND RELATED ANALOGS FOR INHIBITING YAP/TAZ-TEAD” (SpringWorks Therapeutics, Inc., priority 2023, published 2024).

Assays:
Format in all cases: cell-based
[1] = system: YAP/TAZ-TEAD transcription; experiment: Reporter gene assay for measuring the inhibition of YAP/TAZ-TEAD transcription (TEAD-responsive element luciferase reporter, Hek293T cells); conditions: Homo sapiens, HEK-293T, 24 h, Hek293T cells transfected with TEAD-responsive element luciferase reporter, 24 hours incubation
Procedure, shortened: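 HEK293T cells transiently transfected with a TEAD-responsive luciferase reporter are plated on compounds and incubated 24 h at 37 °C/5% CO2, then read with SteadyLite luminescence. Percent inhibition is normalised to vehicle (0%) and a positive-control inhibitor (100%); IC50 is derived from these values.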

NCI-H226 = experiment: Mesothelioma cell line proliferation assay (ATPlite), NCI-H226; conditions: Homo sapiens, 144 h; NCI-H226 cells, 6 days with compound, ATPlite cell viability
Description: (§1) Mesothelioma cell lines, NCI-H226 and NCI-H2052 (both sourced from the ATCC cell culture collection) were plated in 96-well plates (Corning® 96 Well White Polystyrene Microplate clear flat bottom, white polystyrene (TC-Treated)), at 1500 cells/well in full medium (RPMI 1640 ATCC modification with L-glutamine, HEPES, Phenol Red, Sodium Pyruvate, High glucose, Low sodium bicarbonate and 10% fetal bovine serum). Cells were incubated overnight at 37° C. in an incubator with 5% CO2. Then compounds, dissolved in DMSO, were added in dose-response. Cells were incubated with compound dilutions for another 6 days at 37° C. in an incubator with 5% CO2. Cell viability was quantitated using the ATPlite kit (Perkin-Elmer) and the luminescence was read-out using an Envision instrument (Perkin-Elmer). The amount of relative light units produced using the ATPlite kit was used to calculate percent of inhibition.
(§2) The activities of some example compounds are depicted in Table 4. The activity ranges A, B and C refer to EC50 values in the mesothelioma cell line proliferation assay as described as follows: “A”: EC50<1 μM; “B”: 1 μM≤EC50<10 μM and “C”: EC50>10 μM; NT: not tested.

NCI-H2052 = experiment: Mesothelioma cell line proliferation assay (ATPlite), NCI-H2052; conditions: Homo sapiens, 144 h; NCI-H2052 cells, 6 days with compound, ATPlite cell viability
Description: as §1, §2

C=CC(=O)NCC1Cc2c(OCc3cc[nH]c(=O)c3)cccc2N(c2ccc(C(F)(F)F)cc2)C1 (stereo not drawn) [Cpd. No. 6, N-((5-((2-oxo-1,2-dihydropyridin-4-yl)methoxy)-1-(4-(trifluoromethyl)phenyl)-1,2,3,4-tetrahydroquinolin-3-yl)methyl)acrylamide]
< 1000 nM: IC50 [1] | EC50 (NCI-H226) | EC50 (NCI-H2052)

CCC(=O)NCC1Cc2c(OCc3cc[nH]c(=O)c3)cccc2N(c2ccc(C(F)(F)F)cc2)C1 (stereo not drawn) [Cpd. No. 7, N-((5-((2-oxo-1,2-dihydropyridin-4-yl)methoxy)-1-(4-(trifluoromethyl)phenyl)-1,2,3,4-tetrahydroquinolin-3-yl)methyl)propionamide]
< 1000 nM: IC50 [1] | EC50 (NCI-H226) | EC50 (NCI-H2052)

C=CC(=O)NCC1Cc2ncccc2N(c2ccc(C(F)(F)F)cc2)C1 (stereo not drawn) [Cpd. No. 10, N-((1-(4-(trifluoromethyl)phenyl)-1,2,3,4-tetrahydro-1,5-naphthyridin-3-yl)methyl)acrylamide]
< 1000 nM: IC50 [1] | EC50 (NCI-H226) | EC50 (NCI-H2052)

C=CC(=O)NCC1Cc2c(CCN3CC(=O)NC(=O)C3)cccc2N(c2ccc(C(F)(F)F)cc2)C1 (stereo not drawn) [Cpd. No. 11, N-((5-(2-(3,5-dioxopiperazin-1-yl)ethyl)-1-(4-(trifluoromethyl)phenyl)-1,2,3,4-tetrahydroquinolin-3-yl)methyl)acrylamide]
< 1000 nM: IC50 [1] | EC50 (NCI-H226) | EC50 (NCI-H2052)

CC(=O)NCC1Cc2ncccc2N(c2ccc(C(F)(F)F)cc2)C1 (stereo not drawn) [Cpd. No. 12, N-((1-(4-(trifluoromethyl)phenyl)-1,2,3,4-tetrahydro-1,5-naphthyridin-3-yl)methyl)acetamide]
< 1000 nM: IC50 [1] | EC50 (NCI-H226) | EC50 (NCI-H2052)

C=CC(=O)NCC1Cc2c(OCc3cc(=O)[nH]c(=O)n3C)cccc2N(c2ccc(C(F)(F)F)cc2)C1 (stereo not drawn) [Cpd. No. 14, N-((5-((3-methyl-2,6-dioxo-1,2,3,6-tetrahydropyrimidin-4-yl)methoxy)-1-(4-(trifluoromethyl)phenyl)-1,2,3,4-tetrahydroquinolin-3-yl)methyl)acrylamide]
< 1000 nM: IC50 [1] | EC50 (NCI-H226) | EC50 (NCI-H2052)

CC(=O)NCC1Cc2nc(C)ccc2N(c2ccc(C(F)(F)F)cc2)C1 (stereo not drawn) [Cpd. No. 26, N-((6-methyl-1-(4-(trifluoromethyl)phenyl)-1,2,3,4-tetrahydro-1,5-naphthyridin-3-yl)methyl)acetamide]
< 1000 nM: IC50 [1] | EC50 (NCI-H226) | EC50 (NCI-H2052)
